Experimental data taken from US11795204B2 (Zealand Pharma A/S, priority 2012, dated 2023).
Square brackets hold non-standard residues; d marks the D form. Peptide text beside a SMILES is read from it. Dab = NCC[C@H](N)C(=O)O; Dap = NC[C@H](N)C(=O)O; Aib = CC(C)(N)C(=O)O

Tests used:
human Glucagon-R = molecular target: T1, human Glucagon-R (Homo sapiens, UniProt P47871); assay: Glucagon receptor assay (cAMP induction, AlphaScreen); type: cell-based; conditions: HEK293 cells expressing the human Glucagon-R, 15 min at 37° C., read-out: GCG-R EC50 in vitro
T1 construct: expressed in transfected cells
Method: The 5′-end primers additionally encoded a near-Kozak consensus sequence to ensure efficient translation. […] 48 hr after transfection, cells were seeded for limited dilution cloning and selected with 1 mg/ml G418 in the culture medium.
On the day of analysis, growth medium was removed and the cells were washed once with […] of the included Assay buffer with IBMX. Cells were incubated in […] Assay buffer/IBMX containing increasing concentrations of test peptides for 15 min at 37° C. Then the peptides/Assay buffer was removed and cells were lysed by addition of […] Lysis buffer pr. well and incubation for at least 10 min at room temperature. From each well […] cell lysate was transferred to a 384-well OptiPlate and mixed with Donor and Acceptor beads and incubated for 1 h at room temperature. The cAMP content was measured on an Envision plate reader.

physchem = conditions: pH 7.5
Method: A stock solution of the test peptide (2 mg/ml; determined by measurement of the absorption of the solution at 280 nm, and using the theoretical extension coefficient based on the content of tryptophan and tyrosine in the peptide) in demineralized water adjusted to pH 2.5 with HCl was prepared, and aliquots were diluted 1:1 in 100 mM acetate buffer (pH 4.0) and 100 mM phosphate buffer (pH 7.5), respectively, and loaded in a standard flat-bottom, non-sterile 96-well UV Microplate. The absorbance of samples (single samples, n=1) at 280 and 325 nm was measured in an absorbance-based plate reader, which was preheated to ambient temperature.

T1 sequence (P47871 26-477): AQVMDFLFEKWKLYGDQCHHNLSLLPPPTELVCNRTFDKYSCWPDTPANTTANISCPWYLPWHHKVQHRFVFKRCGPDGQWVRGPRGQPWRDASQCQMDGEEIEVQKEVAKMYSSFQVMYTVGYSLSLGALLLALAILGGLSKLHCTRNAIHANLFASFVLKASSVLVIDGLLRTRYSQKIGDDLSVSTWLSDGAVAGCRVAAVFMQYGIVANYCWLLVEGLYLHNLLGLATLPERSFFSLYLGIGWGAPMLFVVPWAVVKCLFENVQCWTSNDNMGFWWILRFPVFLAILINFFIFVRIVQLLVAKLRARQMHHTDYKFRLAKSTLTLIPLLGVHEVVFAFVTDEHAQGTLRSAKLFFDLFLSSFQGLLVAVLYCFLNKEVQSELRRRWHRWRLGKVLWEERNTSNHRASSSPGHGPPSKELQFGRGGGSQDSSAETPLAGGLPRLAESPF

Row | Compound | EC50 (human Glucagon-R) [nM] | solubility (physchem) [µg/mL]
1 | CC(=O)NCC[C@H](NC(=O)[C@H](CO)NC(=O)[C@@H](N)Cc1c[nH]cn1)C(=O)NCC(=O)N[C@H](C(=O)N[C@@H](Cc1ccccc1)C(=O)N[C@H](C(=O)N[C@@H](CO)C(=O)N[C@@H](CC(=O)O)C(=O)N[C@@H](Cc1ccc(O)cc1)C(=O)N[C@@H](CO)C(=O)N[C@@H](CCCCN)C(=O)N[C@@H](Cc1ccc(O)cc1)C(=O)N[C@@H](CC(C)C)C(=O)N[C@@H](CC(=O)O)C(=O)NC(C)(C)C(=O)N[C@@H](C)C(=O)N[C@@H](CCCNC(=N)N)C(=O)N[C@@H](C)C(=O)N[C@@H](CCC(=O)O)C(=O)N[C@@H](CCC(=O)O)C(=O)N[C@@H](Cc1ccccc1)C(=O)N[C@H](C(=O)N[C@@H](CCCCN)C(=O)N[C@@H](Cc1c[nH]c2ccccc12)C(=O)N[C@@H](CC(C)C)C(=O)N[C@@H](CCC(=O)O)C(=O)N[C@@H](CO)C(=O)N[C@H](C(=O)O)[C@@H](C)O)C(C)C)[C@@H](C)O)[C@@H](C)O [Compound 39] (H-HS[Dab](Ac)GTFTSDYSKYLD[Aib]ARAEEFVKWLEST-OH) | 0.0044 | ≥ 1000
2 | H-HSQGTFTSDYSKYLDEARAKSFVEWLEKT-OH [Compound 27] | 0.063 | ≥ 1000
3 | H-HSQGTFTSDYSKYLDSARAEEFVKWLEST-OH [Compound 9] | 0.03 | ≥ 1000
4 | CC(C)C[C@H](NC(=O)[C@H](Cc1c[nH]c2ccccc12)NC(=O)[C@H](CCCCN)NC(=O)[C@@H](NC(=O)[C@H](Cc1ccccc1)NC(=O)[C@H](CCC(=O)O)NC(=O)[C@H](CCC(=O)O)NC(=O)[C@H](C)NC(=O)[C@H](CCCNC(=N)N)NC(=O)[C@H](C)NC(=O)C(C)(C)NC(=O)[C@H](CCC(=O)O)NC(=O)[C@H](CC(C)C)NC(=O)[C@H](Cc1ccc(O)cc1)NC(=O)[C@H](CCCCN)NC(=O)[C@H](CO)NC(=O)[C@H](Cc1ccc(O)cc1)NC(=O)[C@H](CC(=O)O)NC(=O)[C@H](CO)NC(=O)[C@@H](NC(=O)[C@H](Cc1ccccc1)NC(=O)[C@@H](NC(=O)CNC(=O)[C@H](CCC(N)=O)NC(=O)[C@H](CO)NC(=O)[C@@H](N)Cc1c[nH]cn1)[C@@H](C)O)[C@@H](C)O)C(C)C)C(=O)N[C@@H](CCC(=O)O)C(=O)N[C@@H](CO)C(=O)N[C@H](C(=O)O)[C@@H](C)O [Compound 37] (H-HSQGTFTSDYSKYLE[Aib]ARAEEFVKWLEST-OH) | 0.094 | ≥ 1000
5 | H-HSQGTFTSDYSRYLESARAEDFVKWLEST-OH [Compound 7] | 0.93 | ≥ 1000
6 | CC(C)C[C@H](NC(=O)[C@H](Cc1c[nH]c2ccccc12)NC(=O)[C@H](CCC(=O)O)NC(=O)[C@@H](NC(=O)[C@H](Cc1ccccc1)NC(=O)[C@H](CCCCN)NC(=O)[C@H](CCC(=O)O)NC(=O)[C@H](C)NC(=O)[C@H](CCCNC(=N)N)NC(=O)[C@H](C)NC(=O)C(C)(C)NC(=O)[C@H](CC(=O)O)NC(=O)[C@H](CC(C)C)NC(=O)[C@H](Cc1ccc(O)cc1)NC(=O)[C@H](CCCCN)NC(=O)[C@H](CO)NC(=O)[C@H](Cc1ccc(O)cc1)NC(=O)[C@H](CC(=O)O)NC(=O)[C@H](CO)NC(=O)[C@@H](NC(=O)[C@H](Cc1ccccc1)NC(=O)[C@@H](NC(=O)CNC(=O)[C@H](CCC(N)=O)NC(=O)[C@H](CO)NC(=O)[C@@H](N)Cc1c[nH]cn1)[C@@H](C)O)[C@@H](C)O)C(C)C)C(=O)N[C@@H](CCC(=O)O)C(=O)N[C@@H](CO)C(=O)N[C@H](C(=O)O)[C@@H](C)O [Compound 34] (H-HSQGTFTSDYSKYLD[Aib]ARAEKFVEWLEST-OH) | 0.028 | ≥ 1000
7 | CC(C)C[C@H](NC(=O)[C@H](Cc1c[nH]c2ccccc12)NC(=O)[C@H](CCCCN)NC(=O)[C@@H](NC(=O)[C@H](Cc1ccccc1)NC(=O)[C@H](CO)NC(=O)[C@H](CCC(=O)O)NC(=O)[C@H](C)NC(=O)[C@H](CCCNC(=N)N)NC(=O)[C@H](C)NC(=O)C(C)(C)NC(=O)[C@H](CC(=O)O)NC(=O)[C@H](CC(C)C)NC(=O)[C@H](Cc1ccc(O)cc1)NC(=O)[C@H](CCCCN)NC(=O)[C@H](CO)NC(=O)[C@H](Cc1ccc(O)cc1)NC(=O)[C@H](CC(=O)O)NC(=O)[C@H](CO)NC(=O)[C@@H](NC(=O)[C@H](Cc1ccccc1)NC(=O)[C@@H](NC(=O)CNC(=O)[C@H](CCC(N)=O)NC(=O)[C@H](C)NC(=O)[C@@H](N)Cc1c[nH]cn1)[C@@H](C)O)[C@@H](C)O)C(C)C)C(=O)N[C@@H](CCC(=O)O)C(=O)N[C@@H](CO)C(=O)N[C@H](C(=O)O)[C@@H](C)O [Compound 20] (H-HAQGTFTSDYSKYLD[Aib]ARAESFVKWLEST-OH) | 0.24 | ≥ 1000
8 | H-HSQGTFTSDYSKYLDSARAEDFVSWLEST-OH [Compound 10] | 0.32 | ≥ 1000
9 | H-HSQGTFTSDYSKYLDVARAESFVKWLEST-OH [Compound 19] | 0.054 | ≥ 1000
10 | CC(C)C[C@H](NC(=O)[C@H](Cc1c[nH]c2ccccc12)NC(=O)[C@H](CO)NC(=O)[C@@H](NC(=O)[C@H](Cc1ccccc1)NC(=O)[C@H](CCC(=O)O)NC(=O)[C@H](CCC(=O)O)NC(=O)[C@H](C)NC(=O)[C@H](CCCNC(=N)N)NC(=O)[C@H](C)NC(=O)C(C)(C)NC(=O)[C@H](CC(=O)O)NC(=O)[C@H](CC(C)C)NC(=O)[C@H](Cc1ccc(O)cc1)NC(=O)[C@H](CCCCN)NC(=O)[C@H](CO)NC(=O)[C@H](Cc1ccc(O)cc1)NC(=O)[C@H](CC(=O)O)NC(=O)[C@H](CO)NC(=O)[C@@H](NC(=O)[C@H](Cc1ccccc1)NC(=O)[C@@H](NC(=O)CNC(=O)[C@H](CCC(N)=O)NC(=O)[C@H](CO)NC(=O)[C@@H](N)Cc1c[nH]cn1)[C@@H](C)O)[C@@H](C)O)C(C)C)C(=O)N[C@@H](CCC(=O)O)C(=O)N[C@@H](CCCCN)C(=O)N[C@H](C(=O)O)[C@@H](C)O [Compound 33] (H-HSQGTFTSDYSKYLD[Aib]ARAEEFVSWLEKT-OH) | 0.044 | ≥ 1000
11 | CC(=O)NC[C@H](NC(=O)[C@H](CO)NC(=O)[C@@H](N)Cc1c[nH]cn1)C(=O)NCC(=O)N[C@H](C(=O)N[C@@H](Cc1ccccc1)C(=O)N[C@H](C(=O)N[C@@H](CO)C(=O)N[C@@H](CC(=O)O)C(=O)N[C@@H](Cc1ccc(O)cc1)C(=O)N[C@@H](CO)C(=O)N[C@@H](CCCCN)C(=O)N[C@@H](Cc1ccc(O)cc1)C(=O)N[C@@H](CC(C)C)C(=O)N[C@@H](CC(=O)O)C(=O)NC(C)(C)C(=O)N[C@@H](C)C(=O)N[C@@H](CCCNC(=N)N)C(=O)N[C@@H](C)C(=O)N[C@@H](CCC(=O)O)C(=O)N[C@@H](CCC(=O)O)C(=O)N[C@@H](Cc1ccccc1)C(=O)N[C@H](C(=O)N[C@@H](CCCCN)C(=O)N[C@@H](Cc1c[nH]c2ccccc12)C(=O)N[C@@H](CC(C)C)C(=O)N[C@@H](CCC(=O)O)C(=O)N[C@@H](CO)C(=O)N[C@H](C(N)=O)[C@@H](C)O)C(C)C)[C@@H](C)O)[C@@H](C)O [Compound 41] (H-HS[Dap](Ac)GTFTSDYSKYLD[Aib]ARAEEFVKWLEST-NH2) | 0.0038 | ≥ 1000
